# In ChEMBL document CHEMBL1201862, “PubChem BioAssay data set” (2004):
#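 48-hour exposure; five concentrations; linearly interpolated endpoints. GI50 = concentration required for 50% inhibition of growth.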 Activity calls are given as the source filed them. Rule as the data show it: active = GI50 up to about 1.1 µM and inactive = higher.
# What was measured:
# Experiment in all cases: inhibition of tumour cell growth, NCI panel, 48 h
# A498 = system: A498
# COLO 205 = system: COLO 205
# HCC 2998 = system: HCC 2998
# HCT-15 = system: HCT-15
# HOP-62 = system: HOP-62
# HOP-92 = system: HOP-92
# LOX IMVI = system: LOX IMVI
# M14 = system: M14
# MOLT-4 = system: MOLT-4
# NCI-H522 = system: NCI-H522
# OVCAR-8 = system: OVCAR-8
# SF-268 = system: SF-268
# SF-295 = system: SF-295
# SK-MEL-28 = system: SK-MEL-28
# SN12C = system: SN12C
# SR = system: SR
# U-251 = system: U-251
# EKVX = system: EKVX
# MDA-MB-231 = system: MDA-MB-231
# MDA-MB-435 = system: MDA-MB-435
SMILES,GI50 (A498),GI50 (COLO 205),GI50 (HCC 2998),GI50 (HCT-15),GI50 (HOP-62),GI50 (HOP-92),GI50 (LOX IMVI),GI50 (M14),GI50 (MOLT-4),GI50 (NCI-H522),GI50 (OVCAR-8),GI50 (SF-268),GI50 (SF-295),GI50 (SK-MEL-28),GI50 (SN12C),GI50 (SR),GI50 (U-251),GI50 (EKVX),GI50 (MDA-MB-231),GI50 (MDA-MB-435)
CC#N.O[C@@H]1CCCC[C@H]1O.O[C@@H]1CCCC[C@H]1O.[TeH2],> 100 µM (inactive),> 100 µM (inactive),> 100 µM (inactive),18.1 µM,53.5 µM (inactive),26.2 µM (inactive),9.57 µM (inactive),> 100 µM (inactive),27.4 µM (inactive),37.2 µM (inactive),19 µM (inactive),> 100 µM (inactive),18.6 µM (inactive),> 100 µM (inactive),29.1 µM (inactive),24.8 µM (inactive),13.9 µM (inactive),–,–,–
CC(C)CC(N)C(=O)Nc1ccc2ccccc2c1 (centres undefined),> 100 µM (inactive),> 100 µM (inactive),> 100 µM (inactive),> 100 µM,> 100 µM (inactive),–,> 100 µM (inactive),> 100 µM (inactive),> 100 µM (inactive),> 100 µM (inactive),> 100 µM (inactive),> 100 µM (inactive),> 100 µM (inactive),> 100 µM (inactive),> 100 µM (inactive),> 100 µM (inactive),> 100 µM (inactive),> 100 µM (inactive),> 100 µM (inactive),–
CCOC(=O)c1c[nH]c(C(=O)C=[N+]=[N-])c1C1CCN(CC)C1=S (centres undefined),> 100 µM (inactive),63.5 µM (inactive),> 100 µM (inactive),> 100 µM,> 100 µM (inactive),> 100 µM (inactive),–,> 100 µM (inactive),> 100 µM (inactive),> 100 µM (inactive),> 100 µM (inactive),> 100 µM (inactive),> 100 µM (inactive),> 100 µM (inactive),–,–,> 100 µM (inactive),> 100 µM (inactive),> 100 µM (inactive),> 100 µM (inactive)
CN(C)c1ccc(O[Si](Oc2ccc(N(C)C)cc2)(Oc2ccc(N(C)C)cc2)Oc2ccc(N(C)C)cc2)cc1,> 100 µM (inactive),52.7 µM (inactive),79.6 µM (inactive),–,> 100 µM (inactive),> 100 µM (inactive),79.1 µM (inactive),> 100 µM (inactive),98.2 µM (inactive),25.7 µM (inactive),52.8 µM (inactive),> 100 µM (inactive),86.3 µM (inactive),> 100 µM (inactive),96.8 µM (inactive),> 100 µM (inactive),89.3 µM (inactive),> 100 µM (inactive),–,–
CC1=CC2C(C(C)C)CC1C1C(=O)OC(=O)C21 (centres undefined),> 100 µM (inactive),> 100 µM (inactive),30.9 µM (inactive),58.2 µM,99.3 µM (inactive),65.5 µM (inactive),> 100 µM (inactive),> 100 µM (inactive),–,52.7 µM (inactive),65.6 µM (inactive),> 100 µM (inactive),–,> 100 µM (inactive),79.3 µM (inactive),–,64.1 µM (inactive),> 100 µM (inactive),> 100 µM (inactive),> 100 µM (inactive)
Cc1cn(C2CC(n3cc(Cn4cc(Br)c(=O)[nH]c4=O)nn3)C(CO)O2)c(=O)[nH]c1=O (centres undefined),> 100 µM (inactive),> 100 µM (inactive),> 100 µM (inactive),> 100 µM,> 100 µM (inactive),20.4 µM (inactive),> 100 µM (inactive),> 100 µM (inactive),30.7 µM (inactive),–,13 µM (inactive),> 100 µM (inactive),41.9 µM (inactive),> 100 µM (inactive),> 100 µM (inactive),–,39.1 µM (inactive),> 100 µM (inactive),> 100 µM (inactive),42.1 µM (inactive)
COc1ccccc1N1C(=O)C2C3c4ccccc4C(OC(C)=O)(c4ccccc43)C2C1=O (centres undefined),> 100 µM (inactive),> 100 µM (inactive),> 100 µM (inactive),> 100 µM,97.9 µM (inactive),–,> 100 µM (inactive),> 100 µM (inactive),> 100 µM (inactive),–,43 µM (inactive),30.8 µM (inactive),78.7 µM (inactive),71.9 µM (inactive),> 100 µM (inactive),> 100 µM (inactive),60.7 µM (inactive),> 100 µM (inactive),> 100 µM (inactive),–
O=c1c2nn[nH]c2nc2n1CC(c1ccccc1)S2 (centres undefined),> 100 µM (inactive),> 100 µM (inactive),> 100 µM (inactive),> 100 µM,> 100 µM (inactive),–,> 100 µM (inactive),–,> 100 µM (inactive),–,> 100 µM (inactive),> 100 µM (inactive),> 100 µM (inactive),> 100 µM (inactive),> 100 µM (inactive),–,> 100 µM (inactive),> 100 µM (inactive),> 100 µM (inactive),> 100 µM (inactive)
CCOC(=O)c1c2c(n(Cc3ccccc3)c1C)C(=O)C(=O)c1ccccc1-2,–,0.705 µM (active),0.56 µM (active),0.366 µM,0.238 µM (active),0.802 µM (active),0.174 µM (active),0.452 µM (active),0.17 µM (active),0.778 µM (active),0.237 µM (active),0.415 µM (active),0.497 µM (active),0.177 µM (active),0.171 µM (active),–,0.263 µM (active),0.726 µM (active),0.351 µM (active),0.0612 µM (active)
COC(=O)CCC(NC(=O)C(C)NC(=O)COC1C(O)C(OC(=O)CCNc2c3ccccc3nc3cccc([N+](=O)[O-])c23)OC(OCc2ccccc2)C1NC(C)=O)C(N)=O (centres undefined),> 10 µM (inactive),–,2.76 µM (inactive),3.21 µM,3.7 µM (inactive),4.43 µM (inactive),> 10 µM (inactive),2.79 µM (inactive),3 µM (inactive),–,6.5 µM (inactive),7.26 µM (inactive),> 10 µM (inactive),–,4.2 µM (inactive),–,9.98 µM (inactive),> 10 µM (inactive),3.48 µM (inactive),3.39 µM (inactive)
C/C(Cc1ccc2c(c1)OCO2)=N\NC(=O)C(C)Sc1nnc(SC(C)C(=O)N/N=C(\C)Cc2ccc3c(c2)OCO3)s1 (centres undefined),62.4 µM (inactive),> 100 µM (inactive),> 100 µM (inactive),> 100 µM,> 100 µM (inactive),61.1 µM (inactive),> 100 µM (inactive),> 100 µM (inactive),27.7 µM (inactive),–,> 100 µM (inactive),> 100 µM (inactive),> 100 µM (inactive),> 100 µM (inactive),–,–,> 100 µM (inactive),81.3 µM (inactive),84.7 µM (inactive),> 100 µM (inactive)
CC1=NC2=Nc3nc(C)cc[n+]3CN2C=C1,> 100 µM (inactive),67.5 µM (inactive),58.2 µM (inactive),88.5 µM,89.3 µM (inactive),95.7 µM (inactive),29.8 µM (inactive),> 100 µM (inactive),–,> 100 µM (inactive),> 100 µM (inactive),> 100 µM (inactive),85.5 µM (inactive),53.1 µM (inactive),92.5 µM (inactive),–,> 100 µM (inactive),30.7 µM (inactive),54.7 µM (inactive),40 µM (inactive)
COc1cccc(C2c3cc4c(cc3OC(N3CCOCC3)C2C)OCO4)c1OC (centres undefined),–,9.04 µM (inactive),10.4 µM (inactive),4.36 µM,11.4 µM (inactive),–,3.06 µM (inactive),9.1 µM (inactive),4.28 µM (inactive),4.26 µM (inactive),5.68 µM (inactive),9.59 µM (inactive),2.84 µM (inactive),13.4 µM (inactive),8.07 µM (inactive),4.75 µM (inactive),–,18.1 µM (inactive),–,10 µM (inactive)
O=P(O)(O)C=C=C1CCCCC1,> 100 µM (inactive),> 100 µM (inactive),> 100 µM (inactive),> 100 µM,> 100 µM (inactive),> 100 µM (inactive),> 100 µM (inactive),> 100 µM (inactive),–,> 100 µM (inactive),> 100 µM (inactive),> 100 µM (inactive),> 100 µM (inactive),> 100 µM (inactive),> 100 µM (inactive),> 100 µM (inactive),> 100 µM (inactive),> 100 µM (inactive),–,> 100 µM (inactive)
CCCC(=O)OCC1(CO)C/C(=C/CC(C(C)C)C(C)C)C(=O)O1 (centres undefined),> 100 µM (inactive),> 100 µM (inactive),> 100 µM (inactive),> 100 µM,> 100 µM (inactive),97.7 µM (inactive),17.4 µM (inactive),–,–,38.7 µM (inactive),> 100 µM (inactive),> 100 µM (inactive),> 100 µM (inactive),> 100 µM (inactive),> 100 µM (inactive),–,> 100 µM (inactive),> 100 µM (inactive),> 100 µM (inactive),> 100 µM (inactive)
CC1(C)OC(C(C)(C)O)C(C(C)(C)O)O1 (centres undefined),–,> 100 µM (inactive),> 100 µM (inactive),> 100 µM,> 100 µM (inactive),–,> 100 µM (inactive),> 100 µM (inactive),> 100 µM (inactive),> 100 µM (inactive),> 100 µM (inactive),> 100 µM (inactive),> 100 µM (inactive),> 100 µM (inactive),> 100 µM (inactive),> 100 µM (inactive),> 100 µM (inactive),> 100 µM (inactive),> 100 µM (inactive),–
